Publication PMC7245553 (Cell chemical biology, 2020)
≈ marks a conversion by molar mass, not a printed value.

How the values were obtained:
[1] = Mouse pharmacokinetic profiling; assay type: in vivo, CD-1 mice; conditions: mouse, in vivo, po
M. tuberculosis = M. tuberculosis killing kinetics; assay type: cell-based, Mycobacterium tuberculosis; conditions: 103 MIC of compound, over 7 days, followed by re-growth
M. tuberculosis H37Rv [2] = experiment: Mouse model of acute M. tuberculosis infection; assay type: in vivo, BALB/c mice; conditions: 100 mg/kg po qd
M. tuberculosis H37Rv [3] = conditions: cited from earlier work
M. tuberculosis H37Rv [4] = conditions: acute model, 100 mg/kg qd po, alone; ref Kumar et al., 2018; cited from earlier work
Vero cells = conditions: cited from earlier work
[5] = mouse, microsomes; cited from earlier work
[6] = pH 7.4; cited from earlier work

For `CCCCS(=O)(=O)Nc1ccc2cnn(C)c2c1` [DG167], the “AUC0–5h/MIC” value [1] was 20, the “reduction in CFUs, killing kinetics” value (M. tuberculosis) was greater than 2 log10 and the “increase of CFU in the lungs versus start of treatment” value (M. tuberculosis H37Rv [2]) was “about 1 log10 CFU”. The “MIC H37Rv” value (M. tuberculosis H37Rv [3]; footnote a, ref Kumar et al. (2018)) was 0.39 µM (≈ 0.104 µg/mL), the “MIC against the wild-type H37Rv strain” value (M. tuberculosis H37Rv [3]; ref Kumar et al., 2018) was 0.39 mM (≈ 104 µg/mL) and the “bacterial load of mouse lungs versus start of treatment” value (M. tuberculosis H37Rv [4]) was “did not reduce the bacterial load of mouse lungs”. The CC50 (Vero cells) was 23 µM, the “MLM t1/2” value [5] was 10.1 min and the “Kinetic Aqueous Solubility” value [6] was 324 µM.
